Test results reported in US20220323406A1, “METHODS AND COMPOSITIONS FOR DIFFERENTIATING STEM CELLS” (Massachusetts Institute of Technology, priority 2019, published 2022).
Entries after “also recorded” stand apart in the source; their conditions may differ. Read-outs that look alike come from different tables or passages of the source.

Legend:
[1] = test system: 3D-cultured intestinal organoids (ENR or ENR+CD); experiment: Lysozyme secretion assay (3D culture), normalized to ATP; assay type: cell-based, mouse; conditions: 6-day ENR+CD differentiation; for Paneth cell differentiation (functional LYZ secretion), in combination with KPT-330: with KPT-330 (160 nM)
Experimental: Lysozyme assay (3D culture). ISC-enriched organoids cultured in 3D Matrigel with ENRCV media were passaged to 48-well plate in 3D Matrigel with ENRCV. At day zero, media were replaced to ENR or ENRCD with or without indicated compounds, and media were replaced every other day. At day six, cells were washed twice with basal media and treated with carbamylcholine chloride (Sigma, C4382) for 3 hours. Media were collected and lysozyme activity was measured by EnzChek Lysozyme Assay Kit (ThermoFisher, E22013).
Lysozyme secretion assay. ISC-enriched organoids in 3D Matrigel culture were passaged to a 48- or 96-well plate and cultured with ENR or ENR+CD media containing DMSO or each drug for 6 days. DMSO- or drug-containing media were changed every other day. On day 6, cells were washed with basal media twice and treated with basal media with or without 10 μM carbamoylcholine chloride for 3 h in a CO2 incubator at 37° C. A part of the conditioned media was collected and used for lysozyme assay (Thermo, E-22013) following the manufacturer's instruction. The fluorescence was measured using excitation/emission of 485/530 nm. CellTiter-Glo 3D Reagent (Promega, G9681) was added afterward, and the cell culture plate was incubated on an orbital shaker at RT for 30 min to induce cell lysis and to stabilize the luminescent signal. The solution was replaced to a 96-well white microplate, and luminescent signals were measured by a microplate reader (infinite M200, Tecan). The standard curve was prepared by diluting recombinant ATP (Promega, P1132). For both assays, a polynomial cubic curve was fitted to a set of standard data, and each sample value was calculated on the Microsoft Excel.

[2] = test system: ENR+CD organoids (ISC to Paneth cell differentiation); experiment: Primary screen: CCh-stimulated lysozyme secretion LYZ.S, 2.5-D 384-well ENR+CD organoid differentiation; assay type: cell-based, mouse; conditions: primary screen
Excerpt: (§1) High-throughput screening.

[3] = test system: ENR+CD organoids (ISC to Paneth cell differentiation); experiment: Primary screen: basal (non-stimulated) lysozyme secretion LYZ.NS, 2.5-D 384-well ENR+CD organoid differentiation; assay type: cell-based, mouse
Excerpt: as §1

[4] = test system: ENR+CD organoids; conditions: primary screen; for Z.CTG: standard z score
[5] = test system: ENR+CD organoids; experiment: Primary screen: ATP (CellTiter-Glo 3D, CTG) cell number/viability, 2.5-D 384-well ENR+CD organoids; conditions: primary screen; for Dose.FC.CTG: FC relative to plate median; for Z.CTG: standard z score;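 on all read-outs here: compounds given at plating and again on day 3 over a 6-day differentiation from ENR+CV stem-cell-enriched precursors, ATP measured on day 6, plate median as control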
[6] = test system: ENR+CD organoids (ISC to Paneth cell differentiation); experiment: Secondary (validation) screen: LYZ.S CCh-stimulated lysozyme secretion, 2.5-D 384-well ENR+CD organoids; assay type: cell-based, mouse; conditions: 6-day ENR+CD, vs ENR+CD+DMSO
[7] = test system: ENR+CD organoids; experiment: Secondary (validation) screen: ATP (CTG) assay, 2.5-D 384-well ENR+CD organoids; assay type: cell-based, mouse; conditions: 6-day ENR+CD, vs ENR+CD+DMSO
[8] = test system: ENR+CD organoids (ISC to Paneth cell differentiation); experiment: Secondary (validation) screen: LYZ.NS basal lysozyme secretion, 2.5-D 384-well ENR+CD organoids; assay type: cell-based, mouse; conditions: 6-day ENR+CD, vs ENR+CD+DMSO

`Cc1ccc(C(=O)Cn2c3c(sc2=N)CCCC3)cc1` [pifithrin-α] was tested, and the “Paneth cell differentiation (functional LYZ secretion), compound alone” value (from here on “Paneth cell differentiation … compound alone”) [1] was “neither P53 inhibitor altered Paneth cell differentiation” and the “Paneth cell differentiation (functional LYZ secretion), in combination with KPT-330” value (“Paneth cell differentiation … with KPT-330” for short) [1] was “neither P53 inhibitor altered Paneth cell differentiation”.
`O=C(c1ccc(F)c(F)c1Nc1ccc(I)cc1F)N1CC(O)([C@@H]2CCCCN2)C1` [cobimetinib] was tested, and the “Paneth cell differentiation … compound alone” value [1] was “did not significantly alter Paneth cell differentiation” and the “Paneth cell differentiation … with KPT-330” value [1] was “differentiation was enhanced; also recorded: significantly enhance Paneth cell differentiation”.
`C=C1C[C@@H]2[C@H](CC[C@]3(C)C(=O)CC[C@@H]23)[C@@]2(C)C=CC(=O)C=C12` [Exemestane] showed a Dose.FC.LYZ.S ([2]; dose 0.08 uM) of 0.062 log2 fold change, a Dose.FC.LYZ.S ([2]; dose 0.40 uM) of 0.035 log2 fold change and a Dose.FC.LYZ.S ([2]; dose 2.00 uM) of 0.058 log2 fold change. The Dose.FC.LYZ.S ([2]; dose 10.00 uM) was −0.005 log2 fold change, the Dose.FC.LYZ.NS ([3]; primary screen, dose 0.08 uM) was 0.051 log2 fold change and the Dose.FC.LYZ.NS ([3]; primary screen, dose 0.40 uM) was 0.079 log2 fold change. For the same molecule, the Dose.FC.LYZ.NS ([3]; primary screen, dose 2.00 uM) was 0.001 log2 fold change, the Dose.FC.LYZ.NS ([3]; primary screen, dose 10.00 uM) was 0.007 log2 fold change and the Z.LYZ.NS ([3]; primary screen, standard z score, dose 0.08 uM) was 0.447. It also gave a Z.LYZ.NS ([3]; primary screen, standard z score, dose 0.40 uM) of 0.687, a Z.LYZ.NS ([3]; primary screen, standard z score, dose 2.00 uM) of 0.012 and a Z.LYZ.NS ([3]; primary screen, standard z score, dose 10.00 uM) of 0.060. For the same molecule, the Dose.FC.CTG ([4]; dose 0.08 uM) was −0.046 log2 fold change, the Dose.FC.CTG ([4]; dose 0.40 uM) was −0.407 log2 fold change and the Dose.FC.CTG ([4]; dose 2.00 uM) was 0.170 log2 fold change. The Dose.FC.CTG ([4]; dose 10.00 uM) was −0.167 log2 fold change, the Z.CTG ([4]; dose 0.08 uM) was −0.110 and the Z.CTG ([4]; dose 0.40 uM) was −0.973. It also gave a Z.CTG ([4]; dose 2.00 uM) of 0.405 and a Z.CTG ([4]; dose 10.00 uM) of −0.398.
`CC1=C(/C=C/C(=C/C=C/C(C)=C/C(=O)O)c2ccc(C)cc2)C(C)(C)CCC1` [SR11302] was tested, and the “Paneth cell differentiation … compound alone” value [1] was “also decreases functional LYZ secretion” and the “Paneth cell differentiation … with KPT-330” value [1] was “significantly decreases functional LYZ secretion”.
For `NC(=O)c1ccc(-c2nc(-c3ccccn3)c(-c3ccc4c(c3)OCO4)[nH]2)cc1` [SB431542], the “increase of cell viability compared with LY215799” value [5] was “outperformed LY215799”, the Dose.FC.CTG ([5]; dose 0.08 uM) was 0.380 log2 fold change and the Z.CTG ([5]; dose 0.08 uM) was 0.907. For the same molecule, the Dose.FC.CTG ([5]; dose 0.40 uM) was 0.473 log2 fold change, the Z.CTG ([5]; dose 0.40 uM) was 1.130 and the Dose.FC.CTG ([5]; dose 2.00 uM) was 0.316 log2 fold change. For the same molecule, the Z.CTG ([5]; dose 2.00 uM) was 0.754, the Dose.FC.CTG ([5]; dose 10.00 uM) was 0.155 log2 fold change and the Z.CTG ([5]; dose 10.00 uM) was 0.370. The Dose.FC.LYZ.S ([6]; 0.06 uM) was 0.067 log2 fold change, the Z.LYZ.S ([6]; 0.06 uM) was 0.514 and the repSSMD.LYZ.S ([6]; 0.06 uM) was 0.855. For the same molecule, the Dose.FC.LYZ.S ([6]; 0.24 uM) was 0.027 log2 fold change, the Z.LYZ.S ([6]; 0.24 uM) was 0.211 and the repSSMD.LYZ.S ([6]; 0.24 uM) was 0.301. It also gave a Dose.FC.LYZ.S ([6]; 0.48 uM) of −0.050 log2 fold change, a Z.LYZ.S ([6]; 0.48 uM) of −0.387 and a repSSMD.LYZ.S ([6]; 0.48 uM) of −0.449. The Dose.FC.LYZ.S ([6]; […]) was 0.072 log2 fold change, the Dose.FC.LYZ.S ([2]; dose 0.08 uM, FC relative to plate median) was 0.135 log2 fold change and the Dose.FC.LYZ.S ([2]; dose 0.40 uM, FC relative to plate median) was 0.309 log2 fold change. The Dose.FC.LYZ.S ([2]; dose 2.00 uM, FC relative to plate median) was 0.223 log2 fold change, the Dose.FC.LYZ.S ([2]; dose 10.00 uM, FC relative to plate median) was 0.126 log2 fold change and the Dose.FC.CTG ([7]; 0.06 uM) was 0.160 log2 fold change. For the same molecule, the Z.CTG ([7]; 0.06 uM) was 1.439, the repSSMD.CTG ([7]; 0.06 uM) was 0.654 and the Dose.FC.CTG ([7]; 0.24 uM) was 0.023 log2 fold change. It also gave a Z.CTG ([7]; 0.24 uM) of 0.206, a repSSMD.CTG ([7]; 0.24 uM) of 0.141 and a Dose.FC.CTG ([7]; 0.48 uM) of 0.083 log2 fold change. The Z.CTG ([7]; 0.48 uM) was 0.752, the repSSMD.CTG ([7]; 0.48 uM) was 0.527 and the Dose.FC.CTG ([7]; […]) was 0.120 log2 fold change. It also gave a Dose.FC.LYZ.NS ([8]; 0.06 uM) of 0.089 log2 fold change, a Z.LYZ.NS ([8]; 0.06 uM) of 0.709 and a repSSMD.LYZ.NS ([8]; 0.06 uM) of 1.073. It also gave a Dose.FC.LYZ.NS ([8]; 0.24 uM) of 0.105 log2 fold change, a Z.LYZ.NS ([8]; 0.24 uM) of 0.838 and a repSSMD.LYZ.NS ([8]; 0.24 uM) of 0.830. The Dose.FC.LYZ.NS ([8]; 0.48 uM) was −0.016 log2 fold change, the Z.LYZ.NS ([8]; 0.48 uM) was −0.128 and the repSSMD.LYZ.NS ([8]; 0.48 uM) was −0.149. The Dose.FC.LYZ.NS ([8]; […]) was 0.116 log2 fold change, the “primary screen hit call (SSMD and z-scored FC cutoffs in both LYZ assays)” value ([3]; LYZ.NS and LYZ.S; 0.08-10 uM, 6 days ENR+CD) was “selected as a hit” and the “performance on both LYZ assays compared with LY215799” value ([3]; primary screen) was “performed almost identically to LY215799”. For the same molecule, the Dose.FC.LYZ.NS ([3]; primary screen, dose 0.08 uM, FC relative to plate median) was 0.141 log2 fold change, the Z.LYZ.NS ([3]; primary screen, dose 0.08 uM, standard z score) was 1.225 and the Dose.FC.LYZ.NS ([3]; primary screen, dose 0.40 uM, FC relative to plate median) was 0.174 log2 fold change. It also gave a Z.LYZ.NS ([3]; primary screen, dose 0.40 uM, standard z score) of 1.514, a Dose.FC.LYZ.NS ([3]; primary screen, dose 2.00 uM, FC relative to plate median) of 0.187 log2 fold change and a Z.LYZ.NS ([3]; primary screen, dose 2.00 uM, standard z score) of 1.632. It also gave a Dose.FC.LYZ.NS ([3]; primary screen, dose 10.00 uM, FC relative to plate median) of 0.040 log2 fold change and a Z.LYZ.NS ([3]; primary screen, dose 10.00 uM, standard z score) of 0.346.
